# Assay results: US20120171123A1, “USES AND COMPOSITIONS FOR TREATMENT OF RHEUMATOID ARTHRITIS” (priority 2006, published 2012)
# Assays:
# adult patients with RA = experiment: Study 1: change in C-reactive protein at Week 12; assay type: in vivo, human
# Description: 407 patients with active RA enrolled in the 2 study arms. Of these patients, 299 (73.5%) patients completed the study until Week 52 and were evaluated.
# Patients were grouped into three cohorts based on baseline CRP concentrations: low (<1 mg/dL); intermediate (1-4 mg/dL); and high (>4 mg/dL). Analyses were further conducted in two categories of patients according to their change in CRP concentrations at Week 12: those with a ≧20% decrease in CRP from baseline; or those with a <20% decrease in CRP from baseline. The following efficacy and radiographic measures were analyzed at Week 52 in the three baseline CRP categories and in the two Week 12 change in CRP categories: DAS28, ACR 20/50/70, Health assessment questionnaire (HAQ), and Total Sharp score (TSS).
# [1] = tested on: patients with active rheumatoid arthritis; experiment: Study A: tender and swollen joint count (TJC28/SJC28); assay type: in vivo, human; settings: for Change in SJC, mean change from baseline / Change in TJC, mean change from baseline / SJC = 0 / TJC = 0: 12 weeks
# Description: Swollen and tender joints are the most characteristic features of RA, as disease severity is directly related to the number of swollen and tender joints. Counting swollen and tender joints is a key component of the clinical assessment of RA. Tender joint count (TJC) is an assessment of 28 or more joints where several different aspects of tenderness are assessed by pressure and joint manipulation on physical examination. Swollen joint count (SJC): an assessment of 28 or more joints where joints are classified as either swollen or not swollen. For TJC and SJC scoring see Fuchs and Pincus, Arthritis Rheum 37:470-475, 1994; Arthritis Rheum 37:463-464, 1994).
# The study design included a 12 week open label treatment period followed by a continuation period examining safety and efficacy. […] The main inclusion criteria for the study were the following: males and females ≧18 years; rheumatoid arthritis (RA; defined by ACR criteria) for ≧3 months; unsatisfactory response (or intolerance) to at least one prior DMARD; and patients with active RA (DAS28≧3.2). Baseline demographics and disease severity is shown below in Table 1:
# Efficacy of adalimumab treatment was determined by examining signs and symptoms of the patients. Various assays were used to determine efficacy, including ACR response, EULAR response, TJC and SJC count, and DAS28.
# The objective of this study was to evaluate the impact of prior biologic therapies, in particular TNF-antagonists etanercept (ETA) and infliximab (INF), on key efficacy parameters of adalimumab therapy in patients with long-standing RA in clinical practice. To evaluate the impact of prior biological therapies, patients with moderate to severe RA enrolled at 450 sites in 11 European countries plus Australia (Study A). Patients with moderate to severe RA and an inadequate response to prior DMARD therapies were enrolled in a 12-week open-label study with an optional extension phase. […] Patients with previous biologic treatment must have received the last administration at least 8 weeks before enrollment Routine safety and efficacy data were collected at weeks 2, 6, and 12, and every 8 weeks in the extension phase. Efficacy parameters included ACR20, ACR50, ACR70, EULAR Response, HAQ, tender and swollen joint count (TJC28/SJC28), and DAS28. […] For this interim analysis, efficacy outcomes were evaluated after 12 weeks of therapy per the number and type of prior biologics used: None, any (ETA, INF, anakinra), ETA only, INF only, or ETA and INF but not anakinra.
# Patients with long-standing, moderate to severe RA were enrolled in Study A at 450 sites in 12 different countries. The study design for Study A is outlined in FIG. 21. […] Previous treatment with other biologics was allowed up to 8 weeks before enrollment. Patients met the following inclusion criteria: Age ≧18 years; RA (defined by American College of Rheumatology criteria) for ≧3 months; active, moderate to severe RA (Disease Activity Score (DAS28)≧3.2); unsatisfactory response or intolerance to at least one prior DMARD, including biologics. Efficacy assessments were performed at weeks 0 (baseline), 2, 6, and 12. The key outcomes measured were: change in DAS28; EULAR responses; ACR20, ACR50, ACR70 responses; changes in Tender Joint Count (TJC) and Swollen Joint Count (SJC); and change in Health Assessment Questionnaire (HAQ).
# [2] = tested on: patients with active rheumatoid arthritis; settings: Study A (N=2008), 12 weeks; cited from earlier work
# [3] = tested on: patients with active rheumatoid arthritis; settings: Study A (N=2008), 12 weeks; cited from earlier work; remark: listed apart in the source
# [4] = prior biologic: ETA + INF (n=78)
# [5] = Week 12, concomitant LEF only (n=557)
# [6] = Week 12, concomitant MTX + LEF (n=123)
# [7] = Week 12, concomitant MTX only (n=1561)
# [8] = Week 12, concomitant QC/HQC (n=85)
# [9] = Week 12, concomitant SSZ only (n=89)
# [10] = Wk 12, concomitant MTX Im 15 mg (N=76), no other DMARD
# [11] = Wk 12, concomitant MTX Iv 15 mg (N=23), no other DMARD
# [12] = Wk 12, concomitant MTX Sc 15 mg (N=37), no other DMARD
# [13] = Wk 12, concomitant MTX oral 15 mg (N=405), no other DMARD
# [14] = Wk 12, concomitant MTX oral ≦7.5 (N=127), no other DMARD
# [15] = Wk 12, concomitant MTX oral ≧20 mg (N=216), no other DMARD
# [16] = week 12, prior biologic: ETA + INF
compound,measurement,setting,value
"CN(Cc1cnc2nc(N)nc(N)c2n1)c1ccc(C(=O)N[C@@H](CCC(=O)O)C(=O)O)cc1 [mtx alone, methotrexate]",patients with <20% decrease in CRP,adult patients with RA,67%
same,patients with ≧20% decrease in CRP,adult patients with RA,33%
"adalimumab: human anti-TNF mAb (HUMIRA, Abbott Laboratories), described in U.S. Pat. No. 6,090,382 as D2E7","Change in SJC, mean change from baseline",[1]; all pts in Study A (n=4241),−6
same,"Change in TJC, mean change from baseline",[1]; all pts in Study A (n=4241),−8
same,SJC = 0,[1]; all pts in Study A (n=4241),24%
same,TJC = 0,[1]; all pts in Study A (n=4241),21%
same,"Change in SJC, mean change from baseline",[1]; prior biologic: Any (n=688),−6
same,"Change in TJC, mean change from baseline",[1]; prior biologic: Any (n=688),−8
same,SJC = 0,[1]; prior biologic: Any (n=688),18%
same,TJC = 0,[1]; prior biologic: Any (n=688),16%
same,"Change in SJC, mean change from baseline",[1]; prior biologic: ETA (n=114),−7
same,"Change in TJC, mean change from baseline",[1]; prior biologic: ETA (n=114),−8
same,SJC = 0,[1]; prior biologic: ETA (n=114),21%
same,TJC = 0,[1]; prior biologic: ETA (n=114),16%
same,"Change in SJC, mean change from baseline",[1]; [4],−5
same,"Change in TJC, mean change from baseline",[1]; [4],−7
same,SJC = 0,[1]; [4],7%
same,TJC = 0,[1]; [4],10%
same,"Change in SJC, mean change from baseline",[1]; prior biologic: INF (n=358),−6
same,"Change in TJC, mean change from baseline",[1]; prior biologic: INF (n=358),−8
same,SJC = 0,[1]; prior biologic: INF (n=358),22%
same,TJC = 0,[1]; prior biologic: INF (n=358),17%
same,"Change in SJC, mean change from baseline",[1]; prior biologic: None (n=3553),−7
same,"Change in TJC, mean change from baseline",[1]; prior biologic: None (n=3553),−8
same,SJC = 0,[1]; prior biologic: None (n=3553),25%
same,TJC = 0,[1]; prior biologic: None (n=3553),22%
same,"Change in SJC (0-28), mean change from baseline",[1]; [5],−6
same,"Change in TJC (0-28), mean change from baseline",[1]; [5],−8
same,"Change in SJC (0-28), mean change from baseline",[1]; [6],−8
same,"Change in TJC (0-28), mean change from baseline",[1]; [6],−10
same,"Change in SJC (0-28), mean change from baseline","[1]; Week 12, concomitant MTX + SSZ",−7
same,"Change in TJC (0-28), mean change from baseline","[1]; Week 12, concomitant MTX + SSZ",−8
same,"Change in SJC (0-28), mean change from baseline",[1]; [7],−7
same,"Change in TJC (0-28), mean change from baseline",[1]; [7],−8
same,"Change in SJC (0-28), mean change from baseline",[1]; [8],−7
same,"Change in TJC (0-28), mean change from baseline",[1]; [8],−9
same,"Change in SJC (0-28), mean change from baseline",[1]; [9],−6
same,"Change in TJC (0-28), mean change from baseline",[1]; [9],−7
same,"Change in SJC (0-28), mean change from baseline",[1]; [10],−6
same,"Change in TJC (0-28), mean change from baseline",[1]; [10],−8
same,"Change in SJC (0-28), mean change from baseline",[1]; [11],−7
same,"Change in TJC (0-28), mean change from baseline",[1]; [11],−11
same,"Change in SJC (0-28), mean change from baseline",[1]; [12],−7
same,"Change in TJC (0-28), mean change from baseline",[1]; [12],−10
same,"Change in SJC (0-28), mean change from baseline",[1]; [13],−6
same,"Change in TJC (0-28), mean change from baseline",[1]; [13],−8
same,"Change in SJC (0-28), mean change from baseline",[1]; [14],−7
same,"Change in TJC (0-28), mean change from baseline",[1]; [14],−8
same,"Change in SJC (0-28), mean change from baseline",[1]; [15],−7
same,"Change in TJC (0-28), mean change from baseline",[1]; [15],−9
same,patients achieving SJC=0,[1]; week 12,25%
same,patients achieving TJC=0,[1]; week 12,23%
same,SJC (0-28) mean change from baseline,"[1]; week 12, 1 prior biologic",−6.4
same,TJC (0-28) mean change from baseline,"[1]; week 12, 1 prior biologic",−8.0
same,SJC (0-28) mean change from baseline,"[1]; week 12, 2 prior biologics",−6.9
same,TJC (0-28) mean change from baseline,"[1]; week 12, 2 prior biologics",−8.1
same,SJC (0-28) mean change from baseline,"[1]; week 12, 3 prior biologics",−6.6
same,TJC (0-28) mean change from baseline,"[1]; week 12, 3 prior biologics",−11.3
same,reduction in SJC28,"[1]; week 12, median",~70%
same,reduction in TJC28,"[1]; week 12, median",~77%
same,SJC (0-28) mean change from baseline,"[1]; week 12, no prior biologic",−6.4
same,TJC (0-28) mean change from baseline,"[1]; week 12, no prior biologic",−8.1
same,SJC (0-28) mean change from baseline,"[1]; week 12, prior etanercept only",−6.6
same,TJC (0-28) mean change from baseline,"[1]; week 12, prior etanercept only",−8.4
same,SJC (0-28) mean change from baseline,"[1]; week 12, prior infliximab only",−6.8
same,TJC (0-28) mean change from baseline,"[1]; week 12, prior infliximab only",−7.8
same,Median TJC reduction,"[1]; week 12, prior biologic: Any",−8
same,Mediant SJC reduction,"[1]; week 12, prior biologic: Any",−6
same,Median TJC reduction,"[1]; week 12, prior biologic: ETA",−8
same,Mediant SJC reduction,"[1]; week 12, prior biologic: ETA",−7
same,Median TJC reduction,[1]; [16],−7
same,Mediant SJC reduction,[1]; [16],−5
same,Median TJC reduction,"[1]; week 12, prior biologic: INF",−8
same,Mediant SJC reduction,"[1]; week 12, prior biologic: INF",−6
same,Median TJC reduction,"[1]; week 12, prior biologic: None",−8
same,Mediant SJC reduction,"[1]; week 12, prior biologic: None",−7
same,"HAQ (mean), change from baseline",[2],−0.49
same,"DAS28 (mean), change from baseline",[3],−2.1
